Laboratory results as given in patent US10105367B2, “Therapeutic thiophene-, furan-, and pyridine-fused azolopyrimidin-5-(6h)-ones” (Dart Neuroscience (Cayman) Ltd., priority 2012, dated 2018).
pIC50: −log10 of the molar value.

Biological target: human PDE1B (Homo sapiens (Human), UniProt Q01064)
Assay: PDE1B inhibitory assay (IMAP TR-FRET)
Details: 200 nM FAM-cAMP, Calmodulin, CaCl2; for pIC50: PDE1B pIC50, negative log of half-maximal molar inhibitory concentration; for PDE1B pIC50: negative log of half-maximal molar inhibitory concentration
Procedure: PDE1B inhibition was determined by an IMAP TR-FRET assay.
After a brief centrifugation, the plates were incubated for 30 minutes at room temperature. The assay was terminated by adding 5 μL IMAP binding reagent/Tb complex (Molecular Devices, Sunnyvale, Calif.) to each well.
Plates were incubated 1 hour at room temperature and read on a Viewlux multimode plate reader (Perkin Elmer). The instrument was set to excite using the DUG11 filter and measure using 490/10 nm and 520/10 nm filters. Ratios of acceptor and donor were then calculated.
For IC50 calculations, the values of % efficacy versus a series of compound concentrations were then plotted using non-linear regression analysis of sigmoidal dose-response curves generated with the equation Y=B+(T−B)/1+10((Log EC50−X)×Hill Slope), where Y=percent activity, B=minimum percent efficacy, T=maximum percent efficacy, X=logarithm of compound and Hill Slope=slope factor or Hill coefficient. The IC50 value was determined by the concentration causing a half-maximal percent efficacy.

SMILES | pIC50 | PDE1B pIC50
COc1ccc(Cn2c(=O)n3ncnc3c3cc(N(C)CCCN(C)C)cnc32)cc1 [Example 202] | 5.00 to 6.00 | –
COc1ccc(Cn2c(=O)n3ncnc3c3cc(N4CCN(S(C)(=O)=O)CC4)cnc32)cc1 [Example 203] | 6.00 to 7.00 | –
COc1ccc(Cn2c(=O)n3ncnc3c3cc(CCNC(=O)OCc4ccccc4)cnc32)cc1 [Example 204, Benzyl 2-(6-(4-Methoxybenzyl)-5-oxo-5,6-dihydropyrido[3,2-e][1,2,4]triazolo[1,5-c]pyrimidin-9-yl)ethylcarbamate] | 6.00 to 7.00 | –
COc1ccc(Cn2c(=O)n3ncnc3c3cc(CN4CCOCC4)cnc32)cc1 [Example 205] | 6.00 to 7.00 | –
COc1ccc(Cn2c(=O)n3ncnc3c3cc(CN4CCCCC4)cnc32)cc1 [Example 206] | 6.00 to 7.00 | –
COc1ccc(Cn2c(=O)n3ncnc3c3cc(CN4CCSCC4)cnc32)cc1 [Example 207] | 6.00 to 7.00 | –
O=c1n(Cc2ccc(Cl)cc2)c2ncc(CN3CCOCC3)cc2c2ncnn12 [Example 208] | 6.00 to 7.00 | –
O=c1n(Cc2ccc(Cl)cc2)c2ncc(CN3CCCCC3)cc2c2ncnn12 [Example 209] | 5.00 to 6.00 | –
C[C@@H]1CN(Cc2cnc3c(c2)c2ncnn2c(=O)n3Cc2ccc(Cl)cc2)C[C@H](C)O1 [Example 210] | 6.00 to 7.00 | –
COc1ccc(Cn2c(=O)n3ncnc3c3cc(CCN)cnc32)cc1 [Example 211, 9-(2-Aminoethyl)-6-(4-methoxybenzyl)pyrido[3,2-e][1,2,4]triazolo[1,5-c]pyrimidin-5(6H)-one] | 5.00 to 6.00 | –
COc1ccc(Cn2c(=O)n3ncnc3c3cc(CCNC4CCOCC4)cnc32)cc1 [Example 212, 6-(4-Methoxybenzyl)-9-(2-(tetrahydro-2H-pyran-4-ylamino)ethyl)pyrido[3,2-e][1,2,4]triazolo[1,5-c]pyrimidin-5(6H)-one] | 5.00 to 6.00 | –
COc1ccc(Cn2c(=O)n3ncnc3c3cc(CCNC(C)c4ccccc4)cnc32)cc1 (stereo not shown) [Example 213] | 6.00 to 7.00 | –
C=Cc1cnc2c(c1)c1ncnn1c(=O)n2Cc1ccc(OC)cc1 [Example 214, 6-(4-Methoxybenzyl)-9-vinylpyrido[3,2-e][1,2,4]triazolo[1,5-c]pyrimidin-5(6H)-one] | 6.00 to 7.00 | –
COCOCc1cnc2c(c1)c1ncnn1c(=O)n2Cc1ccc(OC)cc1 [Example 215] | 6.00 to 7.00 | –
C=C(OCC)c1cnc2c(c1)c1ncnn1c(=O)n2Cc1ccc(OC)cc1 [Example 216] | 6.00 to 7.00 | –
COc1ccc(Cn2c(=O)n3ncnc3c3cc(CO)cnc32)cc1 [Example 217, 9-(Hydroxymethyl)-6-(4-methoxybenzyl)pyrido[3,2-e][1,2,4]triazolo[1,5-c]pyrimidin-5(6H)-one] | 6.00 to 7.00 | –
COc1ccc(Cn2c(=O)n3ncnc3c3cc(CN4CC5CC4CO5)cnc32)cc1 (stereo not shown) [Example 218, 9-(2-Oxa-5-azabicyclo[2.2.1]heptan-5-ylmethyl)-6-(4-methoxybenzyl)pyrido[3,2-e][1,2,4]triazolo[1,5-c]pyrimidin-5(6H)-one] | 6.00 to 7.00 | –
COc1ccc(Cn2c(=O)n3ncnc3c3cc(CN(C)C)cnc32)cc1 [Example 219] | 5.00 to 6.00 | –
COc1ccc(Cn2c(=O)n3ncnc3c3cc(CN4C[C@@H](C)O[C@@H](C)C4)cnc32)cc1 [Example 220] | – | >7
COc1ccc(Cn2c(=O)n3ncnc3c3cc(CN4CCN(C)CC4)cnc32)cc1 [Example 221] | 6.00 to 7.00 | –
COc1ccc(Cn2c(=O)n3ncnc3c3cc(CN4CCOC(C)(C)C4)cnc32)cc1 [Example 223] | 6.00 to 7.00 | –
CCC1CN(Cc2cnc3c(c2)c2ncnn2c(=O)n3Cc2ccc(OC)cc2)CCO1 (stereo not shown) [Example 224] | – | >7

SMILES | pIC50 | PDE1B pIC50
COc1ccc(Cn2c(=O)n3ncnc3c3cc(CN4CC(C)OCC4C)cnc32)cc1 (stereo not shown) [Example 225] | – | >7
COc1ccc(Cn2c(=O)n3ncnc3c3cc(CN4CC(F)(F)OC(F)(F)C4)cnc32)cc1 [Example 226] | 6.00 to 7.00 | –
COc1ccc(Cn2c(=O)n3ncnc3c3cc(CN4CC5CCC(C4)O5)cnc32)cc1 [Example 227] | 6.00 to 7.00 | –
COc1ccc(Cn2c(=O)n3ncnc3c3cc(CN4CCC5(CCOCC5)N4C)cnc32)cc1 [Example 228] | – | >7
COc1ccc(Cn2c(=O)n3ncnc3c3cc(CN4CCOC(C)C4)cnc32)cc1 (stereo not shown) [Example 229] | – | >7
COc1ccc(Cn2c(=O)n3ncnc3c3cc(CN4CCOCC4C)cnc32)cc1 (stereo not shown) [Example 230] | 6.00 to 7.00 | –
COc1ccc(Cn2c(=O)n3ncnc3c3nc(CN4C[C@@H](C)O[C@@H](C)C4)cnc32)cc1 [Example 231] | 6.00 to 7.00 | –
COc1ccc(Cn2c(=O)n3ncnc3c3cc(CN4CCCN(C)CC4)cnc32)cc1 [Example 232] | 5.00 to 6.00 | –
COc1ccc(Cn2c(=O)n3ncnc3c3cc(CN4CCCOCC4)cnc32)cc1 [Example 233] | 6.00 to 7.00 | –
COc1ccc(Cn2c(=O)n3ncnc3c3cc(CN4CCCN(C(C)=O)CC4)cnc32)cc1 [Example 234] | 6.00 to 7.00 | –
COc1ccc(Cn2c(=O)n3ncnc3c3cc(CN(C)C4CCCCC4)cnc32)cc1 [Example 235] | 5.00 to 6.00 | –
COc1ccc(Cn2c(=O)n3ncnc3c3cc(CN4CCC(OC)CC4)cnc32)cc1 [Example 236] | 6.00 to 7.00 | –
COc1ccc(Cn2c(=O)n3ncnc3c3cc(CN(C)C4CCOCC4)cnc32)cc1 [Example 237] | 5.00 to 6.00 | –
COCCN1CCN(Cc2cnc3c(c2)c2ncnn2c(=O)n3Cc2ccc(OC)cc2)CC1 [Example 238] | 5.00 to 6.00 | –
COCCN(Cc1cnc2c(c1)c1ncnn1c(=O)n2Cc1ccc(OC)cc1)C(C)C [Example 239] | 6.00 to 7.00 | –
COc1ccc(Cn2c(=O)n3ncnc3c3ncc(CN4CCN(C)CC4)cc32)cc1 [Example 240] | 5.00 to 6.00 | –
COc1ccc(Cn2c(=O)n3ncnc3c3ncc(CN4CCOCC4)cc32)cc1 [Example 241] | 5.00 to 6.00 | –
COc1ccc(Cn2c(=O)n3ncnc3c3ncc(CN4CCCCC4)cc32)cc1 [Example 242] | 5.00 to 6.00 | –
COc1ccc(Cn2c(=O)n3ncnc3c3ncc(CN4CCSCC4)cc32)cc1 [Example 243] | 5.00 to 6.00 | –
COc1ccc(Cn2c(=O)n3ncnc3c3ncc(CN4C[C@@H](C)O[C@@H](C)C4)cc32)cc1 [Example 244] | 5.00 to 6.00 | –
COCCN(C)Cc1cnc2c(c1)c1ncnn1c(=O)n2Cc1ccc(OC)cc1 [Example 245] | 6.00 to 7.00 | –
COc1ccc(Cn2c(=O)n3ncnc3c3cc(CN4CCN5C(=O)OCC5C4)cnc32)cc1 (stereo not shown) [Example 246] | – | >7

SMILES | pIC50 | PDE1B pIC50
COc1ccc(Cn2c(=O)n3ncnc3c3cc(CN4C[C@H](C)OC[C@@H]4C)cnc32)cc1 [Example 247] | – | >7
COc1ccc(Cn2c(=O)n3ncnc3c3cc(CN4C[C@@H](C)OC[C@H]4C)cnc32)cc1 [Example 248] | 6.00 to 7.00 | –
COc1ccc(Cn2c(=O)n3ncnc3c3cc(CN4CCNCC4)cnc32)cc1 [Example 249, 6-(4-Methoxybenzyl)-9-(piperazin-1-ylmethyl)pyrido[3,2-e][1,2,4]triazolo[1,5-c]pyrimidin-5(6H)-one] | 5.00 to 6.00 | –
COc1ccc(Cn2c(=O)n3ncnc3c3cc(CN4C[C@@H](C)N[C@@H](C)C4)cnc32)cc1 [Example 250] | 5.00 to 6.00 | –
COc1ccc(Cn2c(=O)n3ncnc3c3cc(CN4CCN(CC5CCOC5)CC4)cnc32)cc1 (stereo not shown) [Example 251, 6-(4-Methoxybenzyl)-9-((4-((tetrahydrofuran-3-yl)methyl)piperazin-1-yl)methyl)pyrido[3,2-e][1,2,4]triazolo[1,5-c]pyrimidin-5(6H)-one] | 5.00 to 6.00 | –
COc1ccc(Cn2c(=O)n3ncnc3c3cc(CN4CCN(S(C)(=O)=O)CC4)cnc32)cc1 [Example 252, 6-(4-methoxybenzyl)-9-((4-(methylsulfonyl)piperazin-1-yl)methyl)pyrido[3,2-e][1,2,4]triazolo[1,5-c]pyrimidin-5(6H)-one] | 6.00 to 7.00 | –
COc1ccc(Cn2c(=O)n3ncnc3c3cc(CN4CCN(S(=O)(=O)N(C)C)CC4)cnc32)cc1 [Example 253] | – | >7
COc1ccc(Cn2c(=O)n3ncnc3c3cc(CN4CCN(C(=O)C(F)(F)F)CC4)cnc32)cc1 [Example 254] | 6.00 to 7.00 | –
COc1ccc(Cn2c(=O)n3ncnc3c3cc(CN4CCN(C(=O)C5CCOC5)CC4)cnc32)cc1 (stereo not shown) [Example 255] | 6.00 to 7.00 | –
COc1ccc(Cn2c(=O)n3ncnc3c3ccc(CN4CCOCC4)nc32)cc1 [Example 256, 6-(4-Methoxybenzyl)-8-(morpholinomethyl)pyrido[3,2-e][1,2,4]triazolo[1,5-c]pyrimidin-5(6H)-one] | 5.00 to 6.00 | –
COc1ccc(Cn2c(=O)n3ncnc3c3ccc(CN4C[C@@H](C)O[C@@H](C)C4)nc32)cc1 [Example 257] | 6.00 to 7.00 | –
COc1ccc(Cn2c(=O)n3ncnc3c3ccc(CNCC4(C)COC4)nc32)cc1 [Example 258] | 5.00 to 6.00 | –
COc1ccc(Cn2c(=O)n3ncnc3c3ccc(CN(C)CC4CCOC4)nc32)cc1 (stereo not shown) [Example 259] | 6.00 to 7.00 | –
COc1ccc(Cn2c(=O)n3ncnc3c3ccc(CN(C)C4CC4)nc32)cc1 [Example 260] | 6.00 to 7.00 | –
COc1ccc(Cn2c(=O)n3ncnc3c3ccc(CN4CCN(S(C)(=O)=O)CC4)nc32)cc1 [Example 261] | 6.00 to 7.00 | –
COc1ccc(Cn2c(=O)n3ncnc3c3ccc(CNCc4ccccc4)nc32)cc1 [Example 262] | 6.00 to 7.00 | –
COc1ccc(Cn2c(=O)n3ncnc3c3ccc(CNc4ccccc4)nc32)cc1 [Example 263] | 6.00 to 7.00 | –
COc1ccc(Cn2c(=O)n3ncnc3c3ccc(CN4Cc5ccccc5C4)nc32)cc1 [Example 264] | 6.00 to 7.00 | –
COc1ccc(Cn2c(=O)n3ncnc3c3cc(C(C)=O)cnc32)cc1 [Example 265, 9-Acetyl-6-(4-methoxybenzyl)pyrido[3,2-e][1,2,4]triazolo[1,5-c]pyrimidin-5(6H)-one] | 6.00 to 7.00 | –
COc1ccc(Cn2c(=O)n3ncnc3c3cc(C(C)N4C[C@@H](C)O[C@@H](C)C4)cnc32)cc1 (stereo partly drawn) [Example 266, 9-(1-((2S,6R)-2,6-Dimethylmorpholino)ethyl)-6-(4-methoxybenzyl)pyrido[3,2-e][1,2,4]triazolo[1,5-c]pyrimidin-5(6H)-one] | – | >7
